For this experiment, the target named is T1, α2wt (Homo sapiens, UniProt P23416).
T1 sequence (P23416 28-452): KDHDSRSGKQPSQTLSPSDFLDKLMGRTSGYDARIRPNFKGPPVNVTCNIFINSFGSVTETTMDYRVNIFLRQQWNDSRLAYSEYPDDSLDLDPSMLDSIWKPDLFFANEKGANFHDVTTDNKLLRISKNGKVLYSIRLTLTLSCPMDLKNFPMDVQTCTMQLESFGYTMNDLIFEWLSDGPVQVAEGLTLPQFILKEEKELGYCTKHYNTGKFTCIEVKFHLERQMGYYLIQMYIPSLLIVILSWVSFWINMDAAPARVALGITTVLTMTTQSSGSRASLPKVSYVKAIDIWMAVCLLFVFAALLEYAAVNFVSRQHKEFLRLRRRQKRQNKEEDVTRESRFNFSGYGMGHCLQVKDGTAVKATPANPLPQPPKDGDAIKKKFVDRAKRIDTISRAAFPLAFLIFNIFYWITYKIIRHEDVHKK
The experiment can be described thus: whole-cell patch clamp. The class given is cell-based. The conditions noted are these: agonist; pH 7.4; -80 mV. On the technique in general: Patch clamp records ionic current or voltage across a cell membrane.

Take `NCC(=O)O` [glycine]: the EC50 result is reported as “Dose response of glycine from (A)”.
